The numbers were not newly measured in patent US8828415B2, “Microcapsules with acetylene carbamide-polyurea polymers and formulations thereof for controlled release” (priority 2006, dated 2014), which cites them from elsewhere.

SMILES strings stand for the structures.

For series [1] the following is noted: for cancer (Ames test): MSDS of Sigma-Aldrich and CYTEC. Background: The Ames test detects mutagens through reverse mutation in bacteria.
The next series has as its system mice. The following applies: for 4 h.

Take `CC(C)(N=C=O)c1cccc(C(C)(C)N=C=O)c1` [TMXDI, alpha-, alpha-, alpha-, alpha-tetramethyl xylylene diisocyanate]: the “cancer (Ames test)” value in series [1] is “not carcinogenic”. Also, the “pulmonary sensitization in guinea pigs” value in the series with guinea pigs was “no”. The “acute inhalation toxicity (LC50)” value in the series with mice is 27 ppm for 4 h -. Further, the “affects respiratory system in humans at long term (3 y)” value in the series on humans is “no”.

Consider `Cc1ccc(N=C=O)cc1N=C=O` [TDI, 2,4-toluenediisocyanate], for which, in series [1], the “cancer (Ames test)” value was “carcinogenic (Ames test)”. In series [1] (MSDS), the “cancer: CMR category” value is on record as “CMR Cat. Carcinogen 3” and the “cancer: IARC classification” value is on record as “IARC carrcinogen 2B”. The “pulmonary sensitization in guinea pigs” value with guinea pigs was “Yes”. Moreover, the “acute inhalation toxicity (LC50)” value in the series with mice is given as 10 ppm for 4 h - mice. The “affects respiratory system in humans at long term (3 y)” value in the series with humans is “Yes”.
